Data as given in patent publication US11136311B2, “Heteroaromatic derivatives as NIK inhibitors” (Janssen Pharmaceutica NV, priority 2016, dated 2021).
Read-outs that look alike come from different tables or passages of the source.

Assays:
[1] = target: recombinant human NF-kappaB-inducing kinase (NIK/MAP3K14) (Homo sapiens (Human), UniProt Q99558); experiment: Inhibition of auto-phosphorylation of recombinant human NIK/MAP3K14 activity (AlphaScreen); format: biochemical; settings: averaged values over all measurements on all batches
Protocol: Inhibition of auto-phosphorylation of recombinant human NF-kappaB-inducing kinase (NIK/MAP3K14) activity (AlphaScreen®)
NIK/MAP3K14 auto-phosphorylation activity was measured using the AlphaScreen® (αscreen) format (Perkin Elmer). All compounds tested were dissolved in dimethyl sulfoxide (DMSO) and further dilutions were made in assay buffer. Final DMSO concentration was 1% (v/v) in assays. Assay buffer was 50 mM Tris pH 7.5 containing 1 mM EGTA (ethylene glycol tetraacetic acid), 1 mM DTT (dithiothreitol), 0.1 mM Na3VO4, 5 mM MgCl2, 0.01% Tween® 20. Assays were carried out in 384 well Alphaplates (Perkin Elmer). Incubations consisted of compound, 25 microM Adenosine-5′-triphosphate (ATP), and 0.2 nM NIK/MAP3K14. Incubations were initiated by addition of GST-tagged NIK/MAP3K14 enzyme, carried out for 1 h at 25° C. and terminated by addition of stop buffer containing anti-phospho-IKK Ser176/180 antibody. Protein A Acceptor and Glutathione-Donor beads were added before reading using an EnVision® Multilabel Plate Reader (Perkin Elmer). Signal obtained in the wells containing blank samples was subtracted from all other wells and IC50's were determined by fitting a sigmoidal curve to % inhibition of control versus Log10 compound concentration.

[2] = test system: P-IKKα levels in L363 cells; experiment: Effect of compounds on P-IKKα levels in L363 (NIK translocated multiple myeloma) cells; format: cell-based, human; settings: Homo sapiens, L-363, L363 cells; averaged values; read-out: Inhibition of pIKKα_L-363 (IC50 (nM))
Protocol: Effect of compounds on P-IKKα levels in L363 (NIK translocated multiple myeloma) cells
All compounds tested were dissolved in DMSO and further dilutions were made in culture medium. Final DMSO concentration was 1% (v/v) in cell assays. The human L363 cells (ATCC) were cultured in RPMI 1640 medium supplemented with GlutaMax and 10% fetal calf serum (PAA). Cells were routinely maintained at densities of 0.2×10^6 cells per ml-1×10^6 cells per ml at 37° C. in a humidified 5% CO2 atmosphere. Cells were passaged twice a week splitting back to obtain the low density. Cells were seeded in 96 well plates (Nunc 167008) at 2×10^6 per ml media in a volume of 75 μl per well plus 25 μl 1 μg/ml recombinant human B-cell activating factor (BAFF/BLyS/TNFSF13B). Seeded cells were incubated at 37° C. in a humidified 5% CO2 atmosphere for 24 hr. Drugs and/or solvents were added (20 μl) to a final volume of 120 μl. Following 2 hr treatment plates were removed from the incubator and cell lysis was achieved by the addition of 30 μl 5× lysis buffer followed by shaking on a plate shaker at 4° C. for 10 min. At the end of this incubation lysed cells were centrifuged at 800×g for 20 min at 4° C. and the lysate was assessed for P-IKKα levels by sandwich immuno-assay carried out in anti-rabbit antibody coated Mesoscale plates. Within an experiment, the results for each treatment were the mean of 2 replicate wells. For initial screening purposes, compounds were tested using an 8 point dilution curve (serial 1:3 dilutions). For each experiment, controls (containing MG132 and BAFF but no test drug) and a blank incubation (containing MG132 and BAFF and 10 μM ADS125117, a test concentration known to give full inhibition) were run in parallel. The blank incubation value was subtracted from all control and sample values. To determine the IC50 a sigmoidal curve was fitted to the plot of % inhibition of control P-IKKα levels versus Log10 compound concentration.

JJN-3 cells = experiment: Antiproliferative activity on JJN-3 (NIK translocated) multiple myeloma cells (CellTiter-Glo); format: cell-based, human; settings: JJN-3 (NIK translocated) cells, 96 hr, averaged values, read-out: JJN-3 Proliferation inhibition (IC50 (nM))
Protocol: (§1) Determination of antiproliferative activity on JJN-3 (NIK translocated) and KMS12-BM (NIK WT) multiple myeloma cells
(§2) All compounds tested were dissolved in DMSO and further dilutions were made in culture medium. Final DMSO concentration was 0.3% (v/v) in cell proliferation assays. Viability was assessed using CellTiter-Glo cell viability assay kit (Promega). The human JJN-3 and KMS12-BM cells (DSMZ) were cultured in RPMI 1640 medium supplemented with 2 mM L-glutamine, and 10% fetal calf serum (PAA). Cells were routinely kept as suspension cells at 37° C. in a humidified 5% CO2 atmosphere. Cells were passaged at a seeding density of 0.2×10^6/ml twice a week. Cells were seeded in black tissue culture treated 96-well plates (Perkin Elmer). Densities used for plating ranged from 15000 (JJN3) to 20000 (KMS12BM) cells per well in a total volume of 135 μl medium. Drugs and/or solvents were added (15 μl) to a final volume of 150 μl. Following 96 hr of treatment, plates were removed from the incubator and allowed to equilibrate to room temperature for approx 10 min. 75 μl CellTiter-Glo reagent was added to each well that was then covered (Perkin Elmer Topseal) and shaken on plate shaker for 10 min. Luminescence was measured on a HTS Topcount (Perkin Elmer). Within an experiment, the results for each treatment were the mean of 2 replicate wells. For initial screening purposes, compounds were tested using a 9 point dilution curve (serial 1:3 dilutions). For each experiment, controls (containing no drug) and a blank incubation (containing cells read at the time of compound addition) were run in parallel. The blank value was subtracted from all control and sample values. For each sample, the mean value for cell growth (in relative light units) was expressed as a percentage of the mean value for cell growth of the control.

KMS12-BM cells = experiment: Antiproliferative activity on KMS12-BM (NIK WT) multiple myeloma cells (CellTiter-Glo); format: cell-based, human; settings: KMS12-BM (NIK WT) cells, 96 hr, averaged values, read-out: KMS-12 Proliferation inhibition (IC50 (nM))
Protocol: as §1, §2

Sequence of recombinant human NF-kappaB-inducing kinase (NIK/MAP3K14) (Q99558 whole entry): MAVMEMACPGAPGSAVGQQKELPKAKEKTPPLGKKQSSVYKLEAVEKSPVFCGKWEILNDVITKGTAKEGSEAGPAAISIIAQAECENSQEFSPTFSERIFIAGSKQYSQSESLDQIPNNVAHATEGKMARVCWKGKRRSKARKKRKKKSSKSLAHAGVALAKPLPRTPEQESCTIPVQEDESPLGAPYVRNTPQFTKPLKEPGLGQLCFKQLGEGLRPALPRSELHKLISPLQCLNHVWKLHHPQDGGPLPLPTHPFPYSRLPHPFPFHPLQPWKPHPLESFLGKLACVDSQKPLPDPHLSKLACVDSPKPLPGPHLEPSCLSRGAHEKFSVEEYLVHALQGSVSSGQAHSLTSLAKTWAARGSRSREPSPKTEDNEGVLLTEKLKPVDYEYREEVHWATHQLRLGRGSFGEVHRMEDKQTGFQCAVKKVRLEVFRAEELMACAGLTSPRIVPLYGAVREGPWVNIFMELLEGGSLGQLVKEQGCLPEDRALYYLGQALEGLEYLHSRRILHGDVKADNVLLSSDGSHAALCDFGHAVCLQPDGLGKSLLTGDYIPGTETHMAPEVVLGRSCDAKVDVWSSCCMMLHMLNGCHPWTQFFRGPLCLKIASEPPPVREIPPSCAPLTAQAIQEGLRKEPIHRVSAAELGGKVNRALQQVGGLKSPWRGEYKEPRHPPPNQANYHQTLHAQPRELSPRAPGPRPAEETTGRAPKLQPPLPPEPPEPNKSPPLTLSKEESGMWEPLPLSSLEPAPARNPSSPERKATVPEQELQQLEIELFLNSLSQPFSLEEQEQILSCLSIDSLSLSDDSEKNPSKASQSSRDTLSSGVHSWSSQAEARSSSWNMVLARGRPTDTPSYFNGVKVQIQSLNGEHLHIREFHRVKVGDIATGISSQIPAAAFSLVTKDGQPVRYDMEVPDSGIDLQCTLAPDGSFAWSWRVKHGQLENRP

Row | Compound | IC50 [1] [nM] | IC50 [2] [nM] | IC50 (JJN-3 cells; Homo sapiens, JJN-3, 96 h) [nM] | IC50 (KMS12-BM cells; Homo sapiens, KMS-12-BM, 96 h) [nM] | IC50 (JJN-3 cells) [nM] | IC50 (KMS12-BM cells) [nM]
1 | Cc1cc(Nc2nccc(-c3cc(C#N)c4c(c3)[C@@](C)(CO)CN4)n2)n(CC2CCN(C)C(=O)C2)n1 (mixture of isomers) [Compound 171] | 6.2 | 1440 |  |  |  | 
2 | Cc1cc(Nc2nccc(-c3cc(C#N)c4c(c3)[C@@](C)(CO)CN4)n2)n(CC(=O)N(C2CC2)C2CC2)n1 [Compound 80] | 3.9 |  | 1100 | 6170 |  | 
3 | Cn1cc(Nc2nccc(-c3cc(C#N)c4c(c3)[C@@](C)(CO)CN4)n2)c(CN2CCCC2=O)n1 [Compound 90] | 5.7 |  | 1550 | 5130 |  | 
4 | CN(C)C(=O)Cn1nc(Cl)cc1Nc1nccc(-c2cc(C#N)c3c(c2)[C@@](C)(CO)CN3)n1 [Compound 116] | 9.3 | 269 |  |  |  | 
5 | Cc1nnc(Nc2nccc(-c3cc(C#N)c4c(c3)C(C)(CO)CN4)n2)o1 (stereo not drawn) [Compound 142] | 42 |  | > 10000 | ~9770 |  | 
6 | Cn1ccc(Nc2ncc(F)c(-c3cc(C#N)c4c(c3)C(C)(CO)CN4)n2)n1 (stereo not drawn) [Compound 143] | 1.3 |  | ~81 | 204 |  | 
7 | Cn1ccc(Nc2ncc(F)c(-c3cc(C#N)c4c(c3)[C@@](C)(CO)CN4)n2)n1 [Compound 144] | 2 |  | 36 | 44 |  | 
8 | Cc1csc(Nc2nccc(-c3cc(C#N)c4c(c3)[C@@](C)(CO)CN4)n2)n1 [Compound 145] | 1.5 |  | 71 | ~3390 |  | 
9 | Cc1nscc1Nc1nccc(-c2cc(C#N)c3c(c2)[C@@](C)(CO)CN3)n1 [Compound 146] | 1.3 |  | 102 | 589 |  | 
10 | Cc1coc(Nc2nccc(-c3cc(C#N)c4c(c3)[C@@](C)(CO)CN4)n2)n1 [Compound 147] | 9.6 |  | ~436 | ~5010 |  | 
11 | Cc1nc(Nc2nccc(-c3cc(C#N)c4c(c3)[C@@](C)(CO)CN4)n2)sc1C [Compound 148] | 0.8 |  | 93 | 282 |  | 
12 | CN(CCO)C[C@]1(C)CNc2c(C#N)cc(-c3ccnc(Nc4ccn(C)n4)n3)cc21 [Compound 173] | 162 |  | 6030 | ~6310 |  | 
13 | CN(CCO)C[C@@]1(C)CNc2c(C#N)cc(-c3ccnc(Nc4ccn(C)n4)n3)cc21 [Compound 174] | 35 |  |  |  | 1550 | 3160

Next, values leading:

Row | IC50 [1] [nM] | IC50 [2] [nM] | IC50 (JJN-3 cells; Homo sapiens, JJN-3, 96 h) [nM] | IC50 (KMS12-BM cells; Homo sapiens, KMS-12-BM, 96 h) [nM] | IC50 (JJN-3 cells) [nM] | IC50 (KMS12-BM cells) [nM] | Compound
14 | 7.2 | 1950 |  |  |  |  | Cc1cc(Nc2nccc(-c3cc(C#N)c4c(c3)[C@@](C)(CO)CN4)n2)n(CC2CCn3ccnc3C2)n1 (mixture of isomers) [Compound 202]
15 | 168 | 3490 |  |  |  |  | CN1CCOCC1c1cc(Nc2nccc(-c3cc(C#N)c4c(c3)[C@@](C)(CO)CN4)n2)nn1C (mixture of isomers) [Compound 215]
16 | 6.2 |  | 832 | ~10000 |  |  | Cc1cc(Nc2nccc(-c3cc(C#N)c4c(c3)[C@@](C)(CO)CN4)n2)n(CC(=O)N2CCCCC2)n1 [Compound 179]
17 | 17 | 51 |  |  |  |  | C[C@]1(CO)CNc2c(C#N)cc(-c3ccnc(Nc4cn(CC(F)F)nc4C(=O)N4CCCC4)n3)cc21 [Compound 189]
18 | 11.7 | 110 |  |  |  |  | CNC(=O)c1c(Nc2nccc(-c3cc(C#N)c4c(c3)[C@@](C)(CO)CN4)n2)cnn1C [Compound 190]
19 | 107 | 4470 |  |  |  |  | Cn1ncc(Nc2nccc(-c3cc(C#N)c4c(c3)[C@@](C)(CO)CN4)n2)c1C(=O)N1CCCC1 [Compound 191]
20 | 25.1 | 91 |  |  |  |  | Cn1ncc(Nc2nccc(-c3cc(C#N)c4c(c3)[C@@](C)(CO)CN4)n2)c1OC1COC1 [Compound 193]
21 | 2.9 | 31 |  |  |  |  | Cc1cc(Nc2nccc(-c3cc(C#N)c4c(c3)[C@@](C)(CO)CN4)n2)n(CC(=O)N(C)C)n1 [Compound 206]
22 | 7.8 |  | 537 | 2630 |  |  | Cn1ccc(Nc2ncnc(-c3cc(C#N)c4c(c3)C(C)(CO)CN4)n2)n1 (stereo not drawn) [Compound 216]
